# Test results: patent US8088930B2, “Benzimidazole derivatives” (Hoffmann-La Roche Inc., priority 2008, dated 2012)
# Molecular target: T1, FXR ligand binding domain (GST-FXR LBD fusion protein, human FXR aa 193-473) (Homo sapiens, UniProt Q96RI1)
# T1 construct: fused on or other part: Glutathione-S-transferase (GST) fused N-terminally to the FXR LBD, used to capture the protein on glutathione SPA beads
# T1 sequence (Q96RI1 211-486 limits assumed): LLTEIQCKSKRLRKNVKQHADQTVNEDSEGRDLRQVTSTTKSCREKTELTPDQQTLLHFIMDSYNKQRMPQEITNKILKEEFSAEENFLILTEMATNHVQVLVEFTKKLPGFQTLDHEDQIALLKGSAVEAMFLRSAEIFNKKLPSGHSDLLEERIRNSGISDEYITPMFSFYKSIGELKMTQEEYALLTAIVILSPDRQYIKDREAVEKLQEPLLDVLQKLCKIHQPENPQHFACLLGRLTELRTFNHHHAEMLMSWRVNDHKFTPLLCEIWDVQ
# Experiment: Radioligand binding assay (scintillation proximity, radioligand displacement)
# Settings: 40 nM GST-FXR LBD on SPA beads, test compound 6×10^−9 M to 2.5×10^−5 M, read-out: h-IC50 Binding
# Description: The following tests were carried out in order to determine the activity of the compounds of formula (I).
# To accomplish this, the portions of the sequences encoding the FXR LBD were amplified by polymerase chain reaction (PCR) from a full-length clone by PCR and then subcloned into the plasmid vectors. The final clone was verified by DNA sequence analysis.
# The induction, expression, and subsequent purification of GST-LBD fusion protein was performed in E. coli strain BL21(pLysS) cells by standard methods (Current Protocols in Molecular Biology, Wiley Press, ed. Ausubel et al.).
# Radioligand Binding Assay
# Binding of test substances to the FXR ligand binding domain was assessed in a radioligand displacement assay. The assay was performed in a buffer consisting of 50 mM Hepes, pH 7.4, 10 mM NaCl, 5 mM MgCl2, 0.01% CHAPS. For each reaction well in a 96-well plate, 40 nM of GST-FXR LBD fusion protein was bound to 10 μg glutathione yttrium silicate SPA beads (Pharmacia Amersham) in a final volume of 50 μl by shaking. A radioligand (e.g., 20 nM of 2,N-dicyclohexyl-2-[2-(2,4 dimethoxy-phenyl)-benzoimidazol-1-yl]-acetamide) and test compounds were added, and scintillation proximity counting was performed. All binding assays were performed in 96-well plates and the amount of bound ligand was measured on a Packard TopCount using OptiPlates (Packard).
row,SMILES,IC50
1,"O=C(O)C1(Oc2ccc(OCC(C3CCCCC3)n3c(-c4ccc(Cl)cc4)nc4cc(F)c(F)cc43)cc2)CC1 (stereo not shown) [Example 120, 1-(4-{2-[2-(4-Chloro-phenyl)-5,6-difluoro-benzoimidazol-1-yl]-2-cyclohexyl-ethoxy}-phenoxy)-cyclopropanecarboxylic acid]",30 nM
2,"Cc1cc(Cl)ccc1-c1nc2cc(F)c(F)cc2n1C(COc1c(F)cc(C(=O)O)cc1F)C1CCCCC1 (single isomer, unassigned; (-)) [Example 125, (−)-4-{2-[2-(4-Chloro-2-methyl-phenyl)-5,6-difluoro-benzoimidazol-1-yl]-2-cyclohexyl-ethoxy}-3,5-difluoro-benzoic acid]",10 nM
3,"O=C(O)c1ccc(COCC(C2CCCCC2)n2c(-c3ccc(Cl)cc3)nc3cc(F)c(F)cc32)cc1 (single isomer, unassigned; (+)) [Example 69, (+)-4-{2-[2-(4-Chloro-phenyl)-5,6-difluoro-benzoimidazol-1-yl]-2-cyclohexyl-ethoxymethyl}-benzoic acid]",700 nM
4,"COc1ccc(-c2nc3cc(F)c(F)cc3n2C(COc2c(F)cc(-c3nnn[nH]3)cc2F)C2CCCCC2)c(OC)n1 (stereo not shown) [Example 129, 1-{1-Cyclohexyl-2-[2,6-difluoro-4-(1H-tetrazol-5-yl)-phenoxy]-ethyl}-2-(2,6-dimethoxy-pyridin-3-yl)-5,6-difluoro-1H-benzoimidazole]",20 nM
5,"Cc1cc(-c2nnn[nH]2)cc(C)c1OCC(C1CCC(F)(F)CC1)n1c(-c2ccc(Cl)cc2)nc2cc(F)c(F)cc21 (stereo not shown) [Example 134, 2-(4-Chloro-phenyl)-1-{1-(4,4-difluoro-cyclohexyl)-2-[2,6-dimethyl-4-(1H-tetrazol-5-yl)-phenoxy]-ethyl}-5,6-difluoro-1H-benzoimidazole]",10 nM
6,"O=C(O)c1ccc(CCC(C2CCCCC2)n2c(-c3ccccc3)nc3cc(F)c(F)cc32)cc1 (single isomer, unassigned; (+)) [Example 144, (+)-4-[3-Cyclohexyl-3-(5,6-difluoro-2-phenyl-benzoimidazol-1-yl)-propyl]-benzoic acid]",200 nM
7,"Fc1cc2nc(-c3ccc(Cl)cc3)n(C(COc3ccncc3)C3CCCCC3)c2cc1F (stereo not shown) [Example 36, 2-(4-Chloro-phenyl)-1-[1-cyclohexyl-2-(pyridin-4-yloxy)-ethyl]-5,6-difluoro-1H-benzoimidazole]",90 nM
8,"O=C(O)c1cc(F)c(OCC(C2CCCCC2)n2c(-c3ccc(Cl)cc3)nc3cc(F)c(F)cc32)c(F)c1 (single isomer, unassigned; (+)) [Example 87, (+)-4-{2-[2-(4-Chloro-phenyl)-5,6-difluoro-benzoimidazol-1-yl]-2-cyclohexyl-ethoxy}-3,5-difluoro-benzoic acid]",40 nM
9,"COc1ccc(-c2nc3cc(F)c(F)cc3n2C(COc2c(F)cc(C(=O)O)cc2F)C2CCCCC2)c(OC)n1 (single isomer, unassigned; (-)) [Example 98, (−)-4-{2-Cyclohexyl-2-[2-(2,6-dimethoxy-pyridin-3-yl)-5,6-difluoro-benzoimidazol-1-yl]-ethoxy}-3,5-difluoro-benzoic acid]",1 nM
10,"CC(C)(Oc1ccc(C(=O)O)cc1)C(C1CCCCC1)n1c(-c2ccc(Cl)cc2)nc2cc(F)c(F)cc21 (single isomer, unassigned; (-)) [Example 89, (−)-4-{2-[2-(4-Chloro-phenyl)-5,6-difluoro-benzoimidazol-1-yl]-2-cyclohexyl-1,1-dimethyl-ethoxy}-benzoic acid]",10 nM
11,"Cc1cc(C(=O)O)ccc1OCC(C1CCCCC1)n1c(-c2ccc(Cl)cc2)nc2cc(F)c(F)cc21 (single isomer, unassigned; (+)) [Example 13, (+)-4-{2-[2-(4-Chloro-phenyl)-5,6-difluoro-benzoimidazol-1-yl]-2-cyclohexyl-ethoxy}-3-methyl-benzoic acid]",100 nM
12,"O=C(O)c1cc(F)c(OCC(C2CCCCC2)n2c(-c3ccc(Cl)cc3)nc3cc(F)c(F)cc32)c(F)c1 (single isomer, unassigned; (-)) [Example 86, (−)-4-{2-[2-(4-Chloro-phenyl)-5,6-difluoro-benzoimidazol-1-yl]-2-cyclohexyl-ethoxy}-3,5-difluoro-benzoic acid]",3 nM
13,"CC(C)(Oc1c(F)cc(C(=O)O)cc1F)C(C1CCCCC1)n1c(-c2ccc(Cl)cc2)nc2cc(F)c(F)cc21 (single isomer, unassigned; (+)) [Example 116, (+)-4-{2-[2-(4-Chloro-phenyl)-5,6-difluoro-benzoimidazol-1-yl]-2-cyclohexyl-1,1-dimethyl-ethoxy}-3,5-difluoro-benzoic acid]",2 nM
14,"O=C(O)c1cc(F)c(OCC(C2CCCCC2)n2c(-c3ccc(Cl)cc3)nc3ccccc32)c(F)c1 (stereo not shown) [Example 102, 4-{2-[2-(4-Chloro-phenyl)-benzoimidazol-1-yl]-2-cyclohexyl-ethoxy}-3,5-difluoro-benzoic acid]",30 nM
15,"O=C(O)c1cc(F)c(OCC(C2CCCCC2)n2c(-c3ccc(Cl)cc3)nc3cc(F)c(F)cc32)c(F)c1 (stereo not shown) [Example 85, 4-{2-[2-(4-Chloro-phenyl)-5,6-difluoro-benzoimidazol-1-yl]-2-cyclohexyl-ethoxy}-3,5-difluoro-benzoic acid]",10 nM
16,"Fc1cc2nc(-c3ccc(Cl)cc3)n(C(CNc3ccc(-c4nnn[nH]4)cc3)C3CCCCC3)c2cc1F (stereo not shown) [Example 139, {2-[2-(4-Chloro-phenyl)-5,6-difluoro-benzoimidazol-1-yl]-2-cyclohexyl-ethyl}-[4-(1H-tetrazol-5-yl)-phenyl]-amine]",3 nM
17,"CC(C)(Oc1ccc(OCC(C2CCCCC2)n2c(-c3ccc(Cl)cc3)nc3cc(F)c(F)cc32)nc1)C(=O)O (single isomer, unassigned; (+)) [Example 48, (+)-2-(6-{2-[2-(4-Chloro-phenyl)-5,6-difluoro-benzoimidazol-1-yl]-2-cyclohexyl-ethoxy}-pyridin-3-yloxy)-2-methyl-propionic acid]",500 nM
18,"O=C(O)c1ccc(SCC(C2CCCCC2)n2c(-c3ccc(Cl)cc3)nc3cc(F)c(F)cc32)cc1 (stereo not shown) [Example 140, 4-{2-[2-(4-Chloro-phenyl)-5,6-difluoro-benzoimidazol-1-yl]-2-cyclohexyl-ethylsulfanyl}-benzoic acid]",70 nM
19,"O=C(O)c1ccc(OCC(C2CCCCC2)n2c(-c3ccc(Cl)cc3)nc3cc(F)c(F)cc32)c(C(F)(F)F)c1 (stereo not shown) [Example 39, 4-{2-[2-(4-Chloro-phenyl)-5,6-difluoro-benzoimidazol-1-yl]-2-cyclohexyl-ethoxy}-3-trifluoromethyl-benzoic acid]",30 nM
20,"Cc1cc(Cl)ccc1-c1nc2cc(F)c(F)cc2n1C(COc1ccc(C(=O)O)cn1)C1CCCCC1 (stereo not shown) [Example 123, 6-{2-[2-(4-Chloro-2-methyl-phenyl)-5,6-difluoro-benzoimidazol-1-yl]-2-cyclohexyl-ethoxy}-nicotinic acid]",30 nM
21,"COc1cc(C(=O)O)cc(OCC(C2CCCCC2)n2c(-c3ccc(Cl)cc3)nc3cc(F)c(F)cc32)n1 (stereo not shown) [Example 31, 2-{2-[2-(4-Chloro-phenyl)-5,6-difluoro-benzoimidazol-1-yl]-2-cyclohexyl-ethoxy}-6-methoxy-isonicotinic acid]",600 nM
22,"Fc1cc2nc(-c3ccc(Cl)cc3)n(C(COCC3CCCCC3)C3CCCCC3)c2cc1F (single isomer, unassigned; (-)) [Example 2, (−)-2-(4-Chloro-phenyl)-1-(1-cyclohexyl-2-cyclohexylmethoxy-ethyl)-5,6-difluoro-1H-benzoimidazole]",60 nM
23,"Cc1cc(OCC(C2CCCCC2)n2c(-c3ccc(Cl)cc3)nc3cc(F)c(F)cc32)cc(C)c1C(=O)O (stereo not shown) [Example 61, 4-{2-[2-(4-Chloro-phenyl)-5,6-difluoro-benzoimidazol-1-yl]-2-cyclohexyl-ethoxy}-2,6-dimethyl-benzoic acid]",1400 nM

# Same assay, conditions: h-IC50 Binding, 40 nM GST-FXR LBD on SPA beads, test compound 6×10^−9 M to 2.5×10^−5 M
row,SMILES,IC50
1,"O=C(O)c1ccc(OCC(C2CCCCC2)n2c(-c3ccc(Cl)cc3)nc3cc(F)c(F)cc32)c(F)c1 (stereo not shown) [Example 7, 4-{2-[2-(4-Chloro-phenyl)-5,6-difluoro-benzoimidazol-1-yl]-2-cyclohexyl-ethoxy}-3-fluorobenzoic acid]",20 nM
2,"O=C(O)c1ccc(OCC(C2CCCCC2)n2c(-c3ccc(Cl)cc3)nc3cc(F)c(F)cc32)cc1 (single isomer, unassigned; (+)) [Example 5, (+)-4-{2-[2-(4-Chloro-phenyl)-5,6-difluoro-benzoimidazol-1-yl]-2-cyclohexyl-ethoxy}-benzoic acid]",40 nM
